Source: patent US20020076402A1, “Enzyme-based fungicidal composition” (Universite Pierre et Marie Curie, priority 1998, published 2002)

What was measured:
[1] = system: Fusarium nivale and Fusarium roseum; experiment: Pelliculisation of corn: degree of contamination by Fusarium sp.; format: in vivo
Experimental: (§1) Germination inhibition test: The pelliculised grains were placed in Petri dishes containing the growth medium. On the fifth day, the degree of contamination (number of contaminated grains/total number of grains) and degree of germination (number of germinated grains/total number of grains) were determined and compared with those of batches pelliculised with Sepiret 01G alone.
(§2) Formulation: An aqueous suspension of Sepiret 7017 Argent composed of 7 g of commercial slip and 10 ml of water was used. 100 mg of the substances shown below was mixed with 2 ml of the above suspension and this mixture was used to pelliculise batches of 2 g of corn. This latter originated from a culture naturally contaminated with Fusarium nivale and Fusarium roseum: […]
(§3) Mixtures tested: (quantities used to pelliculise 2 g of corn: […]

corn = experiment: Pelliculisation of corn: degree of germination; format: in vivo
Experimental: When the test is applied to pelliculised grains or seeds, the degree of germination is determined by the number of grains germinated over the total number of grains, and compared with those of non pelliculised batches, or grains that are pelliculised grains in the absence of enzymes and/or their substrate.
Chitinases alone: quantity used to pelliculise 3 to 4 g of corn naturally contaminated with the phytopathogenic fungi Fusarium nivale and Fusarium roseum: 100 mg of CNase was mixed with 3.4 ml of a suspension of Sepiret 7017 Argent composed of 3.6 g of the commercial suspension and 10 ml of water.
Laminarinases alone: quantity used to pelliculise 2 g of contaminated corn: 40 mg of freeze-dried LMase with a filter of 17 units/mg were mixed with 2 ml of a suspension of Sepiret 7017 Argent composed of 3 g of the commercial suspension and 5 ml of water.
Lysozyme alone: quantity used to pelliculise 2 g of contaminated corn: 100 mg of LZ was mixed with 2 ml of a suspension of Sepiret 7017 Argent composed of 5 g of the commercial suspension and 7.1 ml of water.
as §1, §2, §3

[2] = Example 3 mono-enzymatic mixtures in Sepiret 7017 Argent, fifth day
[3] = Example 4, 100 mg substance in 2 ml Sepiret 7017 Argent suspension per 2 g corn, day five

Compound | inhibition of Fusarium sp. fungi (in words) ([1]; Example 3, enzyme alone) | Degree of contamination [1, 2] | relative variation of degree of germination (corn; Example 3, vs own control) | Degree of germination (corn; [2]) | Contamination [1, 3] | effect on degree of contamination (in words) ([1]; Example 4, vs reference) | Germination (corn; [3])
lysozyme hydrochloride [LZ] | no effect | 65% | +20% | 85% | – | – | –
CC(=O)N[C@H]1C(O)O[C@H](CO)[C@@H](O)[C@@H]1O (stereo partly shown) [NAG, N-acetylglucosamine, reference compound] | – | – | – | – | 70% | no effect | 65%
